{"source": "patent US5482954A", "about": "“Signal transduction inhibitor triazole and diazole compounds” (priority 1994, dated 1996)", "key": {"[1]": {"tested_on": "A2058 cells", "assay": "AMF-stimulated phosphatidyl inositol metabolism", "assay_type": "cell-based, human", "description": "This example illustrates the effect of compound 1 on the generation and release of phosphatidyl inositol from either A2058 cells (stimulated with autocrine motility factor) or CHOm5 cells (stimulated with carbachol).\nA2058 cells were incubated with compound 1 (1.0 μg/mL) for 24 hr, then labelled overnight with [^3 H]inositol in serum-free, low inositol IMEM (LI-IMEM). Cells were then harvested, suspended, and incubated in LI-IMEM containing 10 mM LiCl for 30 min. The metabolism assay was initiated by the addition of either AMF or serum-free medium control to aliquots of 100,000 cells. The aliquots were incubated at 37° C. for 15 and 120 min, then washed twice with ice-cold PBS and extracted with chloroform:methanol (1:2). The total inositol phosphates were removed using Dowex anion exchange column chromatography eluted with ammonium formate 1.0 M/formic acid 0.1 M buffer. Total inositol phosphates and unincorporated total intracellular [^3 H]inositol were quantitated by […]. Data are expressed as a ratio of total inositol phosphates to total unincorporated [^3 H]inositol."}, "[2]": {"conditions": "oral, nude mice; cited from earlier work"}, "[3]": {"tested_on": "5R ras-transfected rat embryo fibroblast cell line", "assay": "Experimental pulmonary metastasis, tumor cells pretreated in vitro", "assay_type": "in vivo, nude mice", "conditions": "cells treated overnight, 1-10 μM; 10 d", "description": "This example illustrates the effect of selected compounds on the development of experimental pulmonary metastases, when the tumor cells are first incubated with the compound in vitro and subsequently injected into the tail vein of nude mice. In this example, both the 5R ras-transfected rat embryo fibroblast cell line and the HT-29 human colon cancer cell line were evaluated.\nThe 5R ras-transfected rat embryo fibroblast cell line forms confluent pulmonary metastases within 2-3 weeks after inoculation. For the experimental metastasis assay, 5R cells were treated in culture overnight with the test compounds (1-10 μM). After culture, the cells were harvested, washed and injected into the tail vein of six-week old nude mice. After 10 d, the mice were humanely sacrificed and the lungs were removed and fixed in Bouin's solution. The visible pulmonary metastases were counted."}, "[4]": {"tested_on": "A2058 or 5R cells", "assay": "Cell spreading", "assay_type": "cell-based", "description": "(§1) Cells were preincubated with compound 1 (0.03-10 μg/mL) for periods of 2 to 48 hr prior to the adhesion assay. In addition, compound 1 remained present during the assay. […] Maximal inhibition of adhesion was observed following overnight exposure of the cells to compound 1."}, "[5]": {"assay": "Plasma levels in mice (HPLC)", "assay_type": "in vivo, nude mice", "conditions": "oral", "description": "Murine data: A cohort of nude mice were inoculated with A2058 cells and treated with compound 1 at rates of 100 mg/kg/d and 250 mg/kg/qod. These animals were sacrificed humanely at 4 day intervals beginning 18 hr after oral administration of 1. Plasma was collected and frozen until evaluation by HPLC. Plasma samples were precipitated with 10% trichloroacetic acid and extracted with methylene chloride. The organic extract was evaporated to dryness under a stream of nitrogen, reconstituted and chromatographed by HPLC using an isocratic elution of 70% methanol in 0.1 M ammonium acetate (pH 6.5) on a C-18 analytical column. The lower level of sensitivity of this method is 20 ng/mL. The levels of compound 1 in plasma ranged from 1-5 μg/mL in the 100 mg/kg/d cohort and from 5-10 μg/mL in the 250 mg/kg/qod group. These plasma levels are in the range determined to be biologically significant in the inhibition of signal transduction."}, "[6]": {"tested_on": "A2058 cells", "assay": "Clonogenic (crystal violet) proliferation assay", "assay_type": "cell-based, human", "conditions": "0-10 μg/mL, 96 hr", "description": "(§2) Proliferation: Two independent methods were used to determine the effect of various compounds on cellular proliferation. The first method utilized [^3 H]thymidine labelling and was performed using A2058, 5R, OVCAR3, and MDA-231 cells. Because the potential effect of compound 1 on thymidine metabolism was unknown, a clonogenic assay was also used. This assay utilized crystal violet nuclear staining.\n(§3) For the clonogenic assay, aliquots of 50,000 cells per well (24 well plates) were grown under standard tissue culture conditions in the presence of increasing doses or test compound (0-10 μg/mL) or vehicle control. After 96 hr, the cells were gently washed with PBS, fixed, and stained with 0.5% crystal violet nuclear stain in 20% methanol. Excess stain was removed with tap water and bound stain was eluted with an equal volume solution of 01N sodium citrate (pH 4.2) and absolute ethanol. Optical density (O.D.) of eluted crystal violet stain was determined at 540 nm. The results of dose-dependent inhibition of tumor cell proliferation by compound 1 are shown in FIG. 5, in which the data are expressed as percent of untreated control cell proliferation for each cell type. The degree of inhibition varied with the cell type and was maximal (76%) for the A2058 cell line."}, "[7]": {"tested_on": "MDA-231 cells", "assay": "Clonogenic (crystal violet) proliferation assay", "assay_type": "cell-based, human", "conditions": "0-10 μg/mL, 96 hr", "description": "as §2, §3"}, "[8]": {"tested_on": "OVCAR3 cells", "assay": "Clonogenic (crystal violet) proliferation assay", "assay_type": "cell-based, human", "conditions": "0-10 μg/mL, 96 hr", "description": "as §2, §3"}, "[9]": {"tested_on": "5R cells", "assay": "Cell adhesion to tissue culture plastic", "assay_type": "cell-based, rat", "conditions": "0.03-10 μg/mL, 2 to 48 hr preincubation", "description": "An adhesion assay was developed using tissue culture plastic petri dishes as the substrate. Aliquots of cells treated similarly to those in the cell motility assay were plated in triplicate onto the dishes and incubated for 90 rain at 37° C. Cells which were either poorly adherent or nonadherent were gently washed off with PBS. The remaining cells were stained with Diff Quik™ (from Baxter Scientific Products, McGaw Park. Ill., USA). Adherence was quantitated using laser densitometry and values were calculated as a percentage of the control adherence.\nas §1"}, "[10]": {"tested_on": "MDA-231 human breast cancer cells", "assay": "AMF-stimulated cell motility", "assay_type": "cell-based", "conditions": "overnight exposure; data not shown"}, "[11]": {"assay": "Cell viability by trypan blue exclusion", "assay_type": "cell-based", "conditions": "a2058 and 5r cells; average", "description": "Compound 1 was preincubated with the cells for various periods of time, added at the start of the assay, or added later. Additionally, compound 1 remained present during the motility assay. The cells were assayed for their motile response to AMF. AMF stimulates random and directed locomotion of 5R ras-transfected rat embryo fibroblasts and A2058 human melanoma cells. […] Cell viability determined by trypan blue exclusion averaged greater than 96%. Cells exposed to various concentrations of compound 1 were tested for their response to AMF vs. control. Percent stimulated motility (in densitometer units) is defined as: […]"}, "[12]": {"tested_on": "SKBR human breast cancer cells", "assay": "AMF-stimulated cell motility", "assay_type": "cell-based", "conditions": "overnight exposure; data not shown"}}}
{"molecule": "NC(=O)c1nnn(Cc2cc(Cl)c(C(=O)c3ccc(Cl)cc3)c(Cl)c2)c1N", "note": "[Compound 1]", "values": [{"measurement": "inhibition of AMF-stimulated phosphatidyl inositol hydrolysis", "setting": "[1]; 1.0 μg/mL, 24 hr", "result": "significantly inhibited"}, {"measurement": "inhibition at 1 µg/mL", "setting": "[1]; Homo sapiens, A2058, 1.0 μg/mL, 24 hr, read-out: inhibition of AMF-stimulated phosphatidyl inositol hydrolysis", "result": "~45", "unit": "%"}, {"measurement": "effect on unstimulated cells (inositol phosphates)", "setting": "[1]; treated, unstimulated cells", "result": "no appreciable effect"}, {"measurement": "toxicity to normal tissues including connective tissue, mucosal surfaces, and bone marrow", "setting": "[2]", "result": "no toxicity to normal tissues"}, {"measurement": "inhibition of pulmonary colonization", "setting": "[3]", "result": 95, "unit": "%"}, {"measurement": "cell spreading", "setting": "[4]", "result": "not markedly decreased"}, {"measurement": "level in plasma", "setting": "[5]; 100 mg/kg/d", "result": "1000 to 5000", "unit": "ng/mL"}, {"measurement": "level in plasma", "setting": "[5]; 250 mg/kg/qod", "result": "5000 to 10000", "unit": "ng/mL"}, {"measurement": "maximal inhibition of tumor cell proliferation", "setting": "[6]", "result": 76, "unit": "%"}, {"measurement": "inhibition of tumor cell proliferation", "setting": "[7]", "result": "dose dependent inhibition of tumor cell proliferation"}, {"measurement": "inhibition of tumor cell proliferation", "setting": "[8]", "result": "dose dependent inhibition of tumor cell proliferation"}, {"measurement": "inhibition of cell adhesion", "setting": "[9]", "result": "dose-dependent inhibition of cell adhesion"}, {"measurement": "motile response to AMF", "setting": "[10]", "result": "inhibited"}, {"measurement": "viability", "setting": "[11]", "result": "> 96", "unit": "%"}, {"measurement": "motile response to AMF", "setting": "[12]", "result": "inhibited"}]}
